The values that follow are results of earlier work, collected in US7265128B2, “3-amino-4-phenylbutanoic acid derivatives as dipeptidyl peptidase inhibitors for the treatment or prevention of diabetes” (Merck & Co., Inc., priority 2003, dated 2007).

The test system of one series is rats. The note with it: survival doubled from day 7.
The test system of the next series is mouse. As to conditions: cyclophosphamide-induced neutropenia.
In a further series the target is T1, DP-IV (Homo sapiens, UniProt P27487).
T1 construct: GRF is rapidly degraded in plasma to GRF[3-44]
T1 sequence (P27487 whole entry): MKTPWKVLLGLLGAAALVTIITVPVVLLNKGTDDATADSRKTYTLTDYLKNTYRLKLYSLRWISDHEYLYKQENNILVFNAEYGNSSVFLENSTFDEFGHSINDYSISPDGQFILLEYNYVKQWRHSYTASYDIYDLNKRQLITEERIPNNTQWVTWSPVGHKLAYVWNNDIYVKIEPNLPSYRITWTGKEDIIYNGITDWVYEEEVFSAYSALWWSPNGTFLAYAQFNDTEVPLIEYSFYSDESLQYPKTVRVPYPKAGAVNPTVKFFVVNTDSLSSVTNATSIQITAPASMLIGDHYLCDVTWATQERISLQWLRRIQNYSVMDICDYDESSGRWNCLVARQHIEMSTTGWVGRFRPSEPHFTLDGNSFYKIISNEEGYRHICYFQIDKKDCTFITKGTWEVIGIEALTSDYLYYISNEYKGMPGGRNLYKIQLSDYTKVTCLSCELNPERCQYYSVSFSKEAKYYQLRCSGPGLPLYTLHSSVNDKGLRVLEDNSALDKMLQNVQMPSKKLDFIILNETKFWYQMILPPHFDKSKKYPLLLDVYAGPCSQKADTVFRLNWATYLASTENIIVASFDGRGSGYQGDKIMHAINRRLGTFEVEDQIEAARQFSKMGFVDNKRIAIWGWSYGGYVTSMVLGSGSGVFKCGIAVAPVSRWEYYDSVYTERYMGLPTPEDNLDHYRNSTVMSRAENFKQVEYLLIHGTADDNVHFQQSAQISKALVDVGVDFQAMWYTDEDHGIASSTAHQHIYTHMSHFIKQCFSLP

As to `CC(C)N1CCC(c2ccccc2)(c2ccccc2)CC1` [Prodipine, Pro-Pro-diphenyl-phosphonate], in the series on rats, the cardiac allograft survival is listed as 14 day.

On to `CC(C)[C@H](N)C(=O)N1CCC[C@H]1B(O)O` [Val-Boro-Pro], for which, in the series with mouse, the hematopoiesis result is on record as “stimulated hematopoiesis”.

Consider diprotin A, for which the “degradation of GRF in plasma to GRF[3-44]” value on DP-IV is listed as “prevented”.
